Assays:
BC1 cell line = test: SANGER: Inhibition of human BC-1 cell growth in a cell viability assay.; type: functional, cell-based; conditions: Homo sapiens, BC1
TALL-1 = test: cells; type: functional, cell-based, Homo sapiens; conditions: Homo sapiens, TALL-1;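 also: growth inhibition of cultured human TALL-1 cells, read out by a cell viability assay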
Description: SANGER: Inhibition of human TALL-1 cell growth in a cell viability assay.

CAL-85-1 = test: cells; type: functional, cell-based; conditions: Homo sapiens;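 also: growth inhibition of human CAL-85-1 cells, read out with a cell viability assay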
Description: SANGER: Inhibition of human CAL-85-1 cell growth in a cell viability assay.

HC-1 = test: cells; type: functional, cell-based, Homo sapiens; conditions: Homo sapiens, HC-1;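 also: growth inhibition of HC-1 cells measured by a cell viability assay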
Description: SANGER: Inhibition of human HC-1 cell growth in a cell viability assay.

MDA-MB-134-VI = test: cells; type: functional, cell-based, Homo sapiens; conditions: Homo sapiens, MDA-MB-134-VI
Description: SANGER: Inhibition of human MDA-MB-134-VI cell growth in a cell viability assay.

SR = test: cells; type: functional, cell-based, Homo sapiens; conditions: Homo sapiens, SR
Description: SANGER: Inhibition of human SR cell growth in a cell viability assay.

NCI-H1651 = test: cells; type: functional, cell-based; conditions: Homo sapiens;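 also: Read-out is a cell viability assay, with IC50 expressing inhibition of NCI-H1651 cell growth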
Description: SANGER: Inhibition of human NCI-H1651 cell growth in a cell viability assay.

NCI-H2052 = test: cells; type: functional, cell-based; conditions: Homo sapiens;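 also: growth inhibition of NCI-H2052 cells, read out with a cell viability assay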
Description: SANGER: Inhibition of human NCI-H2052 cell growth in a cell viability assay.

HT-1080 = test: cells; type: functional, cell-based; conditions: Homo sapiens
Description: SANGER: Inhibition of human HT-1080 cell growth in a cell viability assay.

ASPC1 = test: cells; type: functional, cell-based; conditions: Homo sapiens;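 also: growth inhibition of AsPC-1 cells, read out with a cell viability assay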
Description: SANGER: Inhibition of human AsPC-1 cell growth in a cell viability assay.

Kasumi 1 = test: cells; type: functional, cell-based, Homo sapiens; conditions: Homo sapiens, Kasumi 1;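 also: growth inhibition of human Kasumi-1 cells, read out by a cell viability assay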
Description: SANGER: Inhibition of human KASUMI-1 cell growth in a cell viability assay.

WM-115 = test: cells; type: functional, cell-based; conditions: Homo sapiens
Description: SANGER: Inhibition of human WM-115 cell growth in a cell viability assay.

MDA-MB-361 = test: cells; type: functional, cell-based; conditions: Homo sapiens
SW1573 = test: cells; type: functional, cell-based; conditions: Homo sapiens;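 also: growth inhibition of SW1573 cells, read out with a cell viability assay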
Description: SANGER: Inhibition of human SW1573 cell growth in a cell viability assay.

A-431 = test: cells; type: functional, cell-based; conditions: Homo sapiens;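 also: growth inhibition of A-431 cells, determined with a cell viability read-out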
Description: SANGER: Inhibition of human A431 cell growth in a cell viability assay.

PA-1 = test: cells; type: functional, cell-based; conditions: Homo sapiens;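 also: IC50 for suppression of PA-1 cell proliferation, determined with a cell viability read-out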
Description: SANGER: Inhibition of human PA-1 cell growth in a cell viability assay.

EFO-21 = test: cells; type: functional, cell-based; conditions: Homo sapiens;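 also: growth inhibition of EFO-21 cells measured with a viability assay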
Description: SANGER: Inhibition of human EFO-21 cell growth in a cell viability assay.

HCT-116 = test: cells; type: functional, cell-based; conditions: Homo sapiens
Description: SANGER: Inhibition of human HCT-116 cell growth in a cell viability assay.

HuO-3N1 = test: cells; type: functional, cell-based; conditions: Homo sapiens;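 also: cell viability readout used to measure how strongly compounds suppress proliferation of human HuO-3N1 cells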
Description: SANGER: Inhibition of human HuO-3N1 cell growth in a cell viability assay.

SK-MM-2 = test: cells; type: functional, cell-based, Homo sapiens; conditions: Homo sapiens, SK-MM-2;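 also: growth inhibition of human SK-MM-2 cells, read out with a cell viability assay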
Description: SANGER: Inhibition of human SK-MM-2 cell growth in a cell viability assay.

AGS = test: cells; type: functional, cell-based; conditions: Homo sapiens;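 also: growth inhibition of AGS cells, determined with a cell viability assay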
Description: SANGER: Inhibition of human AGS cell growth in a cell viability assay.

SW1783 = test: cells; type: functional, cell-based; conditions: Homo sapiens
Description: SANGER: Inhibition of human SW1783 cell growth in a cell viability assay.

NCI-H1693 = test: cells; type: functional, cell-based; conditions: Homo sapiens;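 also: growth inhibition of the human cell line, read out with a cell viability assay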
Description: SANGER: Inhibition of human NCI-H1693 cell growth in a cell viability assay.

T-24 = test: cells; type: functional, cell-based; conditions: Homo sapiens;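 also: growth inhibition of T-24 cells, read out with a cell viability assay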
Description: SANGER: Inhibition of human T-24 cell growth in a cell viability assay.

SIMA = test: cells; type: functional, cell-based, Homo sapiens; conditions: Homo sapiens, SIMA;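 also: growth inhibition of SIMA cells, measured with a cell viability readout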
Description: SANGER: Inhibition of human SIMA cell growth in a cell viability assay.

NCI-H1792 = test: cells; type: functional, cell-based; conditions: Homo sapiens;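 also: growth inhibition of human NCI-H1792 cells, read out as cell viability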
Description: SANGER: Inhibition of human NCI-H1792 cell growth in a cell viability assay.

BOKU = test: cells; type: functional, cell-based; conditions: Homo sapiens;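 also: growth inhibition of the human BOKU cell line, read out by a cell viability assay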
Description: SANGER: Inhibition of human BOKU cell growth in a cell viability assay.

OAW-42 = test: cells; type: functional, cell-based; conditions: Homo sapiens;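 also: growth inhibition of OAW-42 cells, read out with a cell viability assay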
Description: SANGER: Inhibition of human OAW-42 cell growth in a cell viability assay.

NCI-H1522 = test: cells; type: functional, cell-based, Homo sapiens; conditions: Homo sapiens, NCI-H1522;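 also: growth inhibition of NCI-H1522 cells, read out with a cell viability assay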
Description: SANGER: Inhibition of human NCI-H1522 cell growth in a cell viability assay.

LC-1F = test: cells; type: functional, cell-based, Homo sapiens; conditions: Homo sapiens, LC-1F;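 also: growth inhibition of human LC-1F cells, read out with a cell viability assay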
Description: SANGER: Inhibition of human LC-1F cell growth in a cell viability assay.

SK-HEP1 = test: cells; type: functional, cell-based, SK-HEP-1; conditions: Homo sapiens;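 also: cell viability readout used to quantify reduction in proliferation of human SK-HEP-1 cells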
Description: SANGER: Inhibition of human SK-HEP-1 cell growth in a cell viability assay.

NCI-H1694 = test: cells; type: functional, cell-based, Homo sapiens; conditions: Homo sapiens, NCI-H1694;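 also: cell viability assay measuring inhibition of growth in human NCI-H1694 cells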
Description: SANGER: Inhibition of human NCI-H1694 cell growth in a cell viability assay.

SCC-3 = test: cells; type: functional, cell-based, Homo sapiens; conditions: Homo sapiens, SCC-3;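 also: cell viability assay measuring inhibition of SCC-3 cell growth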
Description: SANGER: Inhibition of human SCC-3 cell growth in a cell viability assay.

SW1463 = test: cells; type: functional, cell-based; conditions: Homo sapiens;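 also: growth inhibition of SW1463 cells, determined with a cell viability assay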
Description: SANGER: Inhibition of human SW1463 cell growth in a cell viability assay.

HCC1937 = test: cells; type: functional, cell-based; conditions: Homo sapiens;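 also: growth inhibition measured with a cell viability read-out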
Description: SANGER: Inhibition of human HCC1937 cell growth in a cell viability assay.

A204 = test: cells; type: functional, cell-based; conditions: Homo sapiens;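 also: growth inhibition of human A204 cells, read out with a cell viability assay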
Description: SANGER: Inhibition of human A204 cell growth in a cell viability assay.

H4 = test: cells; type: functional, cell-based; conditions: Homo sapiens
Description: SANGER: Inhibition of human H4 cell growth in a cell viability assay.

C-33-A = test: cells; type: functional, cell-based; conditions: Homo sapiens;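 also: cell viability assay measuring growth inhibition of C-33-A cells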
Description: SANGER: Inhibition of human C-33-A cell growth in a cell viability assay.

HT1197 = test: cells; type: functional, cell-based, HT-1197; conditions: Homo sapiens
Description: SANGER: Inhibition of human HT-1197 cell growth in a cell viability assay.

MHH-CALL-2 = test: cells; type: functional, cell-based, Homo sapiens; conditions: Homo sapiens, MHH-CALL-2;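 also: growth inhibition of the cell line, read out in a cell viability assay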
Description: SANGER: Inhibition of human MHH-CALL-2 cell growth in a cell viability assay.

SNU-C1 = test: cells; type: functional, cell-based, Homo sapiens; conditions: Homo sapiens, SNU-C1;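 also: growth inhibition of SNU-C1 human cells, read out by a cell viability assay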
Description: SANGER: Inhibition of human SNU-C1 cell growth in a cell viability assay.

LN-405 = test: cells; type: functional, cell-based; conditions: Homo sapiens
Description: SANGER: Inhibition of human LN-405 cell growth in a cell viability assay.

YKG-1 = test: cells; type: functional, cell-based; conditions: Homo sapiens;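 also: cell growth inhibition, read out with a viability assay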
Description: SANGER: Inhibition of human YKG-1 cell growth in a cell viability assay.

NCI-H1993 = test: cells; type: functional, cell-based; conditions: Homo sapiens;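 also: growth inhibition of the cancer cell line, assessed with a cell viability assay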
Description: SANGER: Inhibition of human NCI-H1993 cell growth in a cell viability assay.

BPH-1 = test: cells; type: functional, cell-based; conditions: Homo sapiens;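 also: cell viability assay measuring growth inhibition of human BPH-1 cells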
Description: SANGER: Inhibition of human BPH-1 cell growth in a cell viability assay.

U-698-M = test: cells; type: functional, cell-based, Homo sapiens; conditions: Homo sapiens, U-698-M
Description: SANGER: Inhibition of human U-698-M cell growth in a cell viability assay.

JIYOYE = test: cells; type: functional, cell-based, Homo sapiens; conditions: Homo sapiens, JIYOYE
Description: SANGER: Inhibition of human JiyoyeP-2003 cell growth in a cell viability assay.

CWR22R = test: cells; type: functional, cell-based; conditions: Homo sapiens, 22Rv1;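 also: growth inhibition of 22Rv1 cells, read out with a cell viability assay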
Description: SANGER: Inhibition of human 22RV1 cell growth in a cell viability assay.

SN12C = test: cells; type: functional, cell-based; conditions: Homo sapiens;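 also: growth inhibition of human SN12C cells, measured by a cell viability assay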
Description: SANGER: Inhibition of human SN12C cell growth in a cell viability assay.

8505C = test: cells; type: functional, cell-based; conditions: Homo sapiens
Description: SANGER: Inhibition of human 8505C cell growth in a cell viability assay.

769-P = test: cells; type: functional, cell-based; conditions: Homo sapiens
Description: SANGER: Inhibition of human 769-P cell growth in a cell viability assay.

BEN = test: cells; type: functional, cell-based; conditions: Homo sapiens;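 also: growth inhibition of the BEN cell line, read out with a cell viability assay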
Description: SANGER: Inhibition of human BEN cell growth in a cell viability assay.

HMV-2 cell line = test: cells; type: functional, cell-based; conditions: Homo sapiens;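 also: growth inhibition of HMV-II cells, read out with a cell viability assay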
Description: SANGER: Inhibition of human HMV-II cell growth in a cell viability assay.

MKN-1 = test: cells; type: functional, cell-based; conditions: Homo sapiens;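 also: growth inhibition of human MKN1 cells, read out by a cell viability measurement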
Description: SANGER: Inhibition of human MKN1 cell growth in a cell viability assay.

Hs-578T = test: cells; type: functional, cell-based; conditions: Homo sapiens
Description: SANGER: Inhibition of human Hs-578-T cell growth in a cell viability assay.

EFO-27 = test: cells; type: functional, cell-based; conditions: Homo sapiens;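 also: growth inhibition of EFO-27 cells, read out with a cell viability assay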
Description: SANGER: Inhibition of human EFO-27 cell growth in a cell viability assay.

S-117 = test: cells; type: functional, cell-based; conditions: Homo sapiens
Description: SANGER: Inhibition of human S-117 cell growth in a cell viability assay.

LB373-MEL-D = test: cells; type: functional, cell-based, Homo sapiens; conditions: Homo sapiens, LB373-MEL-D;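 also: growth inhibition of the cell line, read out in a cell viability assay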
Description: SANGER: Inhibition of human LB373-MEL-D cell growth in a cell viability assay.

NCI-H1573 = test: cells; type: functional, cell-based; conditions: Homo sapiens;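 also: growth inhibition of NCI-H1573 cells, read out with a cell viability assay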
Description: SANGER: Inhibition of human NCI-H1573 cell growth in a cell viability assay.

Measured: IC50

O=S(=O)(O)c1ccc2cc(/N=N/c3cc(S(=O)(=O)O)c4cccnc4c3O)ccc2c1
not listed: NCI-H1573
> 16000 nM: all other assays above

Cc1ccc(C(=O)Nc2ccc(CN3CCN(C)CC3)c(C(F)(F)F)c2)cc1C#Cc1cnc2cccnn12 [PONATINIB]
315 nM: NCI-H2052
425 nM: H4
12.2 nM: A204
2.17 nM: Kasumi 1
304 nM: EFO-21
334 nM: SK-HEP1
211 nM: HCT-116
179 nM: CAL-85-1
not listed: NCI-H1573
> 512 nM: all other assays above

CN(C)CCOc1ccc(-c2nc(-c3ccncc3)c(-c3ccc4c(c3)CC/C4=N\O)[nH]2)cc1 [SB590885]
850 nM: WM-115
not listed: BC1 cell line | TALL-1 | HC-1 | MDA-MB-134-VI | SR | Kasumi 1 | SK-MM-2 | SIMA | BOKU | NCI-H1522 | LC-1F | NCI-H1694 | SCC-3 | MHH-CALL-2 | SNU-C1 | U-698-M | JIYOYE | HMV-2 cell line | MKN-1 | LB373-MEL-D
> 5000 nM: all other assays above

COC(=O)[C@H](CCSC)NC(=O)c1ccc(NC[C@@H](N)CS)cc1-c1ccccc1
not listed: NCI-H1573
> 1020 nM: all other assays above

NC1(c2ccc(-c3nc4ccn5c(=O)[nH]nc5c4cc3-c3ccccc3)cc2)CCC1 [MK-2206]
578 nM: MDA-MB-361
2840 nM: A204
1350 nM: PA-1
3460 nM: H4
2720 nM: AGS
2110 nM: Hs-578T
887 nM: OAW-42
2480 nM: T-24
221 nM: ASPC1
not listed: BC1 cell line | TALL-1 | HC-1 | MDA-MB-134-VI | SR | Kasumi 1 | SK-MM-2 | SIMA | BOKU | NCI-H1522 | LC-1F | NCI-H1694 | SCC-3 | MHH-CALL-2 | SNU-C1 | U-698-M | JIYOYE | HMV-2 cell line | MKN-1 | LB373-MEL-D
> 4000 nM: all other assays above

Source: ChEMBL document CHEMBL1201861, “Genomics of Drug Sensitity in Cancer screening data, Wellcome Trust Sanger Institute”
